Test results reported in patent US6511978B1, “Pyrrole derivatives useful for farnesyl transferase inhibitors and their preparations” (LG Life Sciences, Ltd., priority 1999, dated 2003).

Experiments:
Ras farnesyl transferase [1] = molecular target: T1, Ras farnesyl transferase (Rattus norvegicus, UniProt Q02293+Q04631); test: In vivo (intracellular) Ras farnesylation inhibition in Rat2 cell line transformed with H-Ras fused with polybasic lysine domain of K-Ras; format: cell-based; settings: Rat2 cells transformed with H-Ras/K-Ras polybasic domain fused protein; concentration inhibiting 50% of farnesyl binding; read-out: K-Ras CIC50
T1 construct: endogenous in cells; host or cells: Rat2 fibroblasts transformed with C-Harvey-Ras or with the H-Ras/K-Ras polybasic-domain fusion
Description: (§1) In the present experiment, Rat2 cell line which expresses C-Harvey-Ras protein having transforming activity and Rat2 cell line(Korean patent application No. 97-14409) which is transformed with fused protein of H-Ras substituted with polybasic lysine domain at C-terminus of K-Ras were used. The experiment was performed by the modified Declue's method(Declue. J. E. et al., Cancer Research, 51, 712, 1991) as follows.
(§2) 3×10^5 cells of transformed Rat2 fibroblast cell line were sprayed on 60 mm cell cultivation dish and cultivated for 48 hours in a cell incubator at 37° C. and after 50% or more of density was reached, it was treated with the test compounds. The compound according to the present invention dissolved in dimethylsulfoxide(DMSO) was used. 1% concentration of dimethylsulfoxide was used in both control and test groups. After 4 hours from the treatment with the compound, methionine labeled with 150 μCi of radioactive isotope [^35S] per 1 ml of medium was added and after cultivating for 20 hours, the cells were washed with physiological saline water. The cells were lysed using 1 ml of cold cell lysis buffer solution(50 mM of Sodium HEPES buffer solution containing 5 mM of magnesium chloride, 1 mM of DTT, 1% NP 40, 1 mM of EDTA, 1 mM of PMSF, 2 μM of leupeptin, 2 μM of pepstatin A and 2 μM of antipain) and the supernatant wherein the cells were lysed was obtained by high-velocity centrifugation of 12,000 g×5 minutes. The amount of radioisotope in the supernatant was measured and standardized to obtain a quantitative result in immunoprecipitation reaction and then, Y13-259, a monoclonal antiboby specifically binding to Ras protein(see: Furth, M. E. et al., J. Virol, 43, 294, 1982) was added and reacted for 15 hours at 4° C. Protein A(combined with goat anti-murine immunoglobulin antibody)-agarose suspension was added to the solution and reacted for 1 hour at 4° C. and then, to remove the unspecific binding product, immunoprecipitates were washed with a buffer solution (50 mM Tris chloride buffer solution containing 50 mM of sodium chloride, 0.5% of sodium dioxycholate, 0.5% of NP 40 and 0.1% of SDS). The precipitates were added to a buffer solution for electrophoresis and boiled and then, electrophoresis was performed using 13.5% of SDS polyacrylamide gel. After electrophoresis, the gel was fixed and dried. Then, the gel was exposed to X-ray film, developed and printed. From the result of the experiment, intensities of band of protein combined with or without farnesyl of Ras protein was measured, and the concentration of the test compound inhibiting 50% of farnesyl binding was defined as CIC50, an in vivo Ras farnesyl transferase inhibitory activity. IC50 means the data from Experimental 1 and CIC50 means the data from Experimental 2.

Ras farnesyl transferase [2] = molecular target: T1, Ras farnesyl transferase; test: In vivo (intracellular) Ras farnesylation inhibition in Rat2 cell line expressing C-Harvey-Ras; format: cell-based; settings: Rat2 cells expressing C-Harvey-Ras; concentration inhibiting 50% of farnesyl binding; read-out: H-Ras CIC50
Description: as §1, §2

Ras farnesyl transferase [3] = molecular target: T2, Ras farnesyl transferase (Homo sapiens, UniProt P49354+P49356); test: Ras farnesyl transferase enzyme inhibition, H-Ras substrate; format: biochemical; settings: H-Ras substrate protein; recombinant farnesyl transferase; 30 minutes at 37° C.
T2 construct: made in house
From the text: (§3) In the present experiment, the improved Pompliano's method (see: Pompliano et al., Biochemistry, 31, 3800, 1992) was applied. Specifically, Ras farnesyl transferase produced by genetic recombination techniques was used, and fused protein of H-Ras(H-Ras-CVLS) substituted with polybasic lysine domain at C-terminus of K-Ras (see: Korean Patent Appln. No. 97-14409) was used as a substrate after it had been purified according to the known method(see, Chung et al., Biochimica et Biophysica Acta, 1129, 278, 1992).
(§4) The enzyme reaction was performed in 50 μl of 50 mM Sodium HEPES buffer solution containing 25 mM of potassium chloride, 25 mM of magnesium chloride, 10 mM of DTT and 50 μM of zinc chloride. 1.5 μM of Ras substrate protein, 0.15 μM of tritium-farnesylpyrophosphate and 4.5 nM of farnesyl transferase were used. More specifically, in the initial step, farnesyl transferase was added to the above buffer solution, reaction was maintained for 30 minutes at 37° C. and then the reaction was stopped by adding 1 ml of ethanol solution containing 1M HCl. The formed precipitates were adsorbed to GF/B filter using Hopper harvestor(Hopper #FH 225V) for filter-binding, washed with ethanol, and then radioactivity of the dried filter was measured using LKB β counter. Enzyme titer was measured in the unsaturated state of substrate where the concentration of Ras substrate protein and farnesyl transferase have quantitative relationship. The compound according to the present invention dissolved in dimethyl sulfoxide(DMSO) was added to the reaction solution in an amount of less than 5% of the total reaction solution, and then the enzyme inhibitory activity thereof was measured. The enzyme inhibitory activity was represented by percentage of the amount of farnesyl incorporated into the Ras substrate protein in the presence of the test compound to that in the absence of the test compound. IC50 of the test compound was defined as the concentration at which 50% of the enzyme activity was inhibited. To evaluate the selective enzyme inhibitory activity of the compound according to the present invention, inhibitory activity on geranylgeranyl transferase was measured. Geranylgeranyl transferase was purified from bovine brain according to the modified Schaber's method(Schaber et al., J. Biol. Chem. 265, 14701, 1990), and substantially the same experimental procedure as that for farnesyl transferase was performed on geranylgeranyl pyrophosphate and Ras-CVIL substrate protein.

Ras farnesyl transferase [4] = molecular target: T2, Ras farnesyl transferase; test: Ras farnesyl transferase enzyme inhibition, K-Ras substrate (H-Ras fused with polybasic lysine domain of K-Ras); format: biochemical; settings: K-Ras substrate (fused protein of H-Ras with polybasic lysine domain of K-Ras); recombinant farnesyl transferase
From the text: as §3, §4

| Structure (SMILES) | IC50 (Ras farnesyl transferase [1]) | IC50 (Ras farnesyl transferase [2]) | IC50 (Ras farnesyl transferase [3]) | IC50 (Ras farnesyl transferase [4]) |
| --- | --- | --- | --- | --- |
| Cc1ncn(CCCOCc2ccccc2Cl)c1Cn1cc(C(=O)N2CCN(C)CC2)c(-c2cccc3ccccc23)c1 [Example 31, 1-{1-[3-(2-chlorobenzyloxy)propyl]-4-methyl-1H-imidazol-5-ylmethyl}-3-(4-methylpiperazin-1-yl)carbonyl-4-(naphthalen-1-yl)-1H-pyrrole] | < 10 µM | < 6.25 nM | < 3.2 nM | < 2.1 nM |
| COCCN(C)C(=O)c1cn(Cc2c(C)ncn2CCCOCc2ccccc2Cl)cc1-c1cccc2ccccc12 [Example 32, 1-{1-[3-(2-chlorobenzyloxy)propyl]-4-methyl-1H-imidazol-5-ylmethyl}-3-[N-(2-methoxyethyl)-N-methyl]carbamoyl-4-(naphthalen-1-yl)-1H-pyrrole] | > 10 µM | < 6.25 nM | < 6 nM | < 15 nM |
| Cc1ncc(Cn2cc(C(=O)N3CCN(C)CC3)c(-c3cccc4ccccc34)c2)n1CCCOCc1ccccc1 [Example 33, 1-[1-(3-benzyloxypropyl)-2-methyl-1H-imidazol-5-ylmethyl]-3-(4-methylpiperazin-1-yl)carbonyl-4-(naphthalen-1-yl)-1H-pyrrole] | > 10 µM | > 30 nM | > 30 nM | > 30 nM |
| Cc1ncc(Cn2cc(C(=O)N3CCN(C)CC3)c(-c3cccc4ccccc34)c2)n1CCc1ccccc1 [Example 35, 1-[1-(phenethyl)-2-methyl-1H-imidazol-5-ylmethyl]-3-(4-methylpiperazin-1-yl)carbonyl-4-(naphthalen-1-yl)-1H-pyrrole] | > 10 µM | < 2.5 nM | < 2.5 nM | < 5.9 nM |
| O=[N+]([O-])c1cn(Cc2cncn2Cc2ccc3c(c2)OCO3)cc1-c1cccc2ccccc12 [Example 36, 1-[1-(3,4-methylenedioxybenzyl)-1H-imidazol-5-ylmethyl]-4-(naphthalen-1-yl)-3-nitro-1H-pyrrole] | > 20 µM | > 100 nM | < 5.5 nM | < 15.5 nM |
| O=[N+]([O-])c1cn(Cc2cncn2Cc2ccc(Cl)cc2)cc1-c1cccc2ccccc12 [Example 37, 1-[1-(4-chlorobenzyl)-1H-imidazol-5-ylmethyl]-4-(naphthalen-1-yl)-3-nitro-1H-pyrrole] | > 10 µM | > 25 nM | < 5.7 nM | < 9.5 nM |
| O=[N+]([O-])c1cn(Cc2cncn2Cc2ccc(Br)cc2)cc1-c1cccc2ccccc12 [Example 38, 1-[1-(4-bromobenzyl)-1H-imidazol-5-ylmethyl]-4-(naphthalen-1-yl)-3-nitro-1H-pyrrole] | > 10 µM | > 25 nM | < 23 nM | > 30 nM |
| O=[N+]([O-])c1cn(Cc2cncn2CCc2ccccc2)cc1-c1cccc2ccccc12 [Example 39, 1-[1-(phenethyl)-1H-imidazol-5-ylmethyl]-4-(naphthalen-1-yl)-3-nitro-1H-pyrrole] | > 10 µM | < 25 nM | < 6 nM | < 8.3 nM |
| Cc1ccc(CCn2cncc2Cn2cc(-c3cccc4ccccc34)c([N+](=O)[O-])c2)cc1 [Example 40, 1-[1-(4-methylphenethyl)-1H-imidazol-5-ylmethyl]-4-(naphthalen-1-yl)-3-nitro-1H-pyrrole] | > 10 µM | > 50 nM | < 24 nM | > 30 nM |
| O=[N+]([O-])c1cn(Cc2cncn2CCc2ccc(Cl)cc2)cc1-c1cccc2ccccc12 [Example 41, 1-[1-(4-chlorophenethyl)-1H-imidazol-5-ylmethyl]-4-(naphthalen-1-yl)-3-nitro-1H-pyrrole] | > 10 µM | > 50 nM | < 9 nM | < 4 nM |
| O=[N+]([O-])c1cn(Cc2cncn2CCc2ccc(F)cc2)cc1-c1cccc2ccccc12 [Example 42, 1-[1-(4-fluorophenethyl)-1H-imidazol-5-ylmethyl]-4-(naphthalen-1-yl)-3-nitro-1H-pyrrole] | > 10 µM | > 50 nM | < 4.15 nM | < 7.5 nM |
| O=[N+]([O-])c1cn(Cc2cncn2CCc2cccc(Br)c2)cc1-c1cccc2ccccc12 [Example 43, 1-[1-(3-bromophenethyl)-1H-imidazol-5-ylmethyl]-4-(naphthalen-1-yl)-3-nitro-1H-pyrrole] | > 10 µM | > 50 nM | < 3 nM | < 13 nM |
| COc1ccc(CCn2cncc2Cn2cc(-c3cccc4ccccc34)c([N+](=O)[O-])c2)cc1 [Example 44, 1-[1-(4-methoxyphenethyl)-1H-imidazol-5-ylmethyl]-4-(naphthalen-1-yl)-3-nitro-1H-pyrrole] | > 10 µM | < 25 nM | < 11 nM | < 15 nM |
| COc1cccc(CCn2cncc2Cn2cc(-c3cccc4ccccc34)c([N+](=O)[O-])c2)c1 [Example 45, 1-[1-(3-methoxyphenethyl)-1H-imidazol-5-ylmethyl]-4-(naphthalen-1-yl)-3-nitro-1H-pyrrole] | > 10 µM | < 25 nM | < 16 nM | < 16 nM |
| O=[N+]([O-])c1cn(Cc2cncn2CCc2cccc3ccccc23)cc1-c1cccc2ccccc12 [Example 46, 1-[1-(naphthalen-1-ylethyl)-1H-imidazol-5-ylmethyl]-4-(naphthalen-1-yl)-3-nitro-1H-pyrrole] | > 10 µM | > 50 nM | < 7 nM | < 6 nM |
| CCOCCCn1cncc1Cn1cc(-c2cccc3ccccc23)c([N+](=O)[O-])c1 [Example 47, 1-[1-(3-ethoxypropyl)-1H-imidazol-5-ylmethyl]-4-(naphthalen-1-yl)-3-nitro-1H-pyrrole] | > 10 µM | < 12.5 nM | < 15 nM | < 29 nM |
| Cn1cncc1Cn1cc(-c2cccc3ccccc23)c([N+](=O)[O-])c1 [Example 48, 1-[1-(methyl)-1H-imidazol-5-ylmethyl]-4-(naphthalen-1-yl)-3-nitro-1H-pyrrole] | > 10 µM | > 50 nM | > 30 nM | > 30 nM |
